Test results: patent US4081531A, “Antibiotic mimosamycin” (priority 1975, dated 1978)
In brackets after ≈: the same amount, converted by molar mass.

How the values were obtained:
Solubility = type: physicochemical
tubercle bacilli = assay: Effect against tubercle bacilli; type: cell-based
gram-positive bacteria = assay: Antibacterial activity against gram-positive bacteria; type: cell-based; conditions: for antibacterial activity against gram-positive bacteria: chlorocarcins, summary of Table 5
fungi = assay: Activity against fungi; type: cell-based; conditions: at 50 μg/ml
gram-negative bacteria = assay: Antibacterial activity against gram-negative bacteria; type: cell-based; conditions: for antibacterial activity against most gram-negative bacteria: chlorocarcins, summary of Table 5
[1] = test system: Mycobacterium tuberculosis H37 RV; assay: Antimicrobial activity (MIC) against tubercle bacilli; type: cell-based; conditions: H37RV, 672 h, Sauton's liquid medium, 37° C, 4 weeks
acid-fast bacteria = assay: Activity against acid-fast bacteria; type: cell-based
[2] = test system: Mycobacterium smegmatis ATCC607; assay: Antimicrobial activity (MIC) of mimosamycin; type: cell-based; conditions: Mycolicibacterium smegmatis, Nutrient agar, 37° C, 48 hours
Protocol: (§1) Remarks: Nutrient agar, 37° C, 48 hours for m. smegmatis. Sauton's liquid medium, 37° C, 4 weeks for other 3 strains. The strains SMR and Matsudo resistant to streptomycin at 1000 μg/ml or higher. Mice (18 - 20 g.) tolerated intravenous injection of 50 mg./kg. of mimosamycin.

[3] = Tolerability in mice, intravenous injection; type: in vivo; conditions: for toxicity: mice
Protocol: as §1
(A) and 250 mg./kg.(B and C), respectively.

[4] = test system: highly streptomycin-resistant strains of human tubercle bacilli; type: cell-based; conditions: as is against normal strains of tubercle bacilli
[5] = test system: Mycobacterium bovis No. 10; assay: microbe, parasite or virus in culture; type: cell-based; conditions: Mycobacterium tuberculosis variant bovis, NO.10, 672 h
Escherichia coli = assay: Antimicrobial spectrum (MIC); type: cell-based; conditions: 1% glucose nutrient agar, 37° C, 24 or 48 hours
Brucella abortus = type: cell-based; conditions: blood agar, 37° C, 24 or 48 hours
Klebsiella pneumonaie = assay: Antimicrobial spectrum (MIC); type: cell-based; conditions: 1% glucose nutrient agar, 37° C, 24 or 48 hours
Salmonella typhimurium = assay: Antimicrobial spectrum (MIC); type: cell-based; conditions: 1% glucose nutrient agar, 37° C, 24 or 48 hours
Shigella dysenteriae = assay: Antimicrobial spectrum (MIC); type: cell-based; conditions: 1% glucose nutrient agar, 37° C, 24 or 48 hours
[6] = test system: Trichophyton mentagrophytes; assay: Antimicrobial spectrum (MIC); type: cell-based; conditions: Sabouraud dextrose agar, 27° C, 72 hours
[7] = test system: Bacillus subtilis PCI 219; assay: Antimicrobial spectrum (MIC); type: cell-based; conditions: 1% glucose nutrient agar, 37° C, 24 or 48 hours
Penicillium glaucum = assay: Antimicrobial spectrum (MIC); type: cell-based; conditions: Sabouraud dextrose agar, 27° C, 48 hours
Streptococcus salivarius = assay: Antimicrobial spectrum (MIC); type: cell-based; conditions: 1% glucose nutrient agar, 37° C, 24 or 48 hours
Tolura rubra = assay: Antimicrobial spectrum (MIC); type: cell-based; conditions: Sabouraud dextrose agar, 27° C, 48 hours
Aspergillus niger = assay: Antimicrobial spectrum (MIC); type: cell-based; conditions: Sabouraud dextrose agar, 27° C, 48 hours
[8] = test system: Mycobacterium smegmatis ATCC 607; assay: Antimicrobial spectrum (MIC); type: cell-based; conditions: 3% glycerin nutrient agar, 37° C, 24 or 48 hours
[9] = test system: Staphylococcus aureus Smith; assay: Antimicrobial spectrum (MIC); type: cell-based; conditions: 1% glucose nutrient agar, 37° C, 24 or 48 hours
[10] = test system: Streptococcus hemolyticus 090R; assay: Antimicrobial spectrum (MIC); type: cell-based; conditions: blood agar, 37° C, 24 or 48 hours
Saccharomyces cerevisiae = assay: Antimicrobial spectrum (MIC); type: cell-based; conditions: Sabouraud dextrose agar, 27° C, 48 hours
Aspergillus oryzae = assay: Antimicrobial spectrum (MIC); type: cell-based; conditions: Sabouraud dextrose agar, 27° C, 48 hours
Pseudomonas aeruginosa = assay: Antimicrobial spectrum (MIC); type: cell-based; conditions: 1% glucose nutrient agar, 37° C, 24 or 48 hours
[11] = test system: Corynebacterium diphtheriae; assay: Antimicrobial spectrum (MIC); type: cell-based; conditions: 1% glucose nutrient agar, 37° C, 24 or 48 hours
Corynebacterium xerosis = assay: Antimicrobial spectrum (MIC); type: cell-based; conditions: 1% glucose nutrient agar, 37° C, 24 or 48 hours
Bacillus cereus = assay: Antimicrobial spectrum (MIC); type: cell-based; conditions: 1% glucose nutrient agar, 37° C, 24 or 48 hours
Staphylococcus albus = assay: Antimicrobial spectrum (MIC); type: cell-based; conditions: 1% glucose nutrient agar, 37° C, 24 or 48 hours
Nocardia asteoides = assay: Antimicrobial spectrum (MIC); type: cell-based; conditions: 37° C, 24 or 48 hours
[12] = test system: Staphylococcus aureus 209 P; assay: Antimicrobial spectrum (MIC); type: cell-based; conditions: 1% glucose nutrient agar, 37° C, 24 or 48 hours
Mycobacterium avium = assay: Antimicrobial spectrum (MIC); type: cell-based; conditions: 3% glycerin nutrient agar, 37° C, 24 or 48 hours
Mycobacterium phlei = assay: Antimicrobial spectrum (MIC); type: cell-based; conditions: 3% glycerin nutrient agar, 37° C, 24 or 48 hours
[13] = test system: Streptococcus hemolyticus Coock; assay: Antimicrobial spectrum (MIC); type: cell-based; conditions: blood agar, 37° C, 24 or 48 hours
Lactobacillus arabinosus = assay: Antimicrobial spectrum (MIC); type: cell-based; conditions: 1% glucose nutrient agar, 37° C, 24 or 48 hours
Serratia marcescens = assay: Antimicrobial spectrum (MIC); type: cell-based; conditions: 1% glucose nutrient agar, 37° C, 24 or 48 hours
Streptococcus faecalis = assay: Antimicrobial spectrum (MIC); type: cell-based; conditions: 1% glucose nutrient agar, 37° C, 24 or 48 hours
Candida albicans = assay: Antimicrobial spectrum (MIC); type: cell-based; conditions: Sabouraud dextrose agar, 27° C, 48 hours
Staphylococcus citreus = assay: Antimicrobial spectrum (MIC); type: cell-based; conditions: 1% glucose nutrient agar, 37° C, 24 or 48 hours
Mucor mucedo = assay: Antimicrobial spectrum (MIC); type: cell-based; conditions: Sabouraud dextrose agar, 27° C, 48 hours
[14] = Lower alcohols, chloroform, esters, acetone, benzene, ethyl ether

COC1=C(C)C(=O)c2cc(=O)n(C)cc2C1=O [mimosamycin]
Solubility (Solubility; Ethyl ether, n-hexane): Sparingly soluble
Solubility (Solubility; Methanol, ethanol, chloroform, esters, acetone): Easily soluble
Solubility (Solubility; Water): Insoluble
effect against tubercle bacilli (tubercle bacilli): specifically effective
activity against gram-positive bacteria (gram-positive bacteria; mimosamycin): active against gram-positive bacteria to a certain extent
activity against fungi (fungi): non-effective
activity against gram-negative bacteria (gram-negative bacteria; at 50 μg/ml): non-effective
MIC [1]: 1.56 µg/mL (≈ 6.69 µM)
activity against acid-fast bacteria (acid-fast bacteria): active
MIC [2]: 25 µg/mL (≈ 107 µM)
MTD ([3]; mouse, in vivo, mice 18 - 20 g, read-out: tolerated dose): 50 mg/kg
activity against highly streptomycin-resistant strains of human tubercle bacilli [4]: effective
MIC [5]: 6.25 µg/mL (≈ 26.8 µM)

chlorocarcin A
MIC (Escherichia coli): > 100 µg/mL
MIC (Brucella abortus): > 100 µg/mL
MIC (Klebsiella pneumonaie): 100 µg/mL
MIC (Salmonella typhimurium): > 100 µg/mL
MIC (Shigella dysenteriae): > 100 µg/mL
MIC [6]: 100 µg/mL
Solubility (Solubility; Ethyl ether, esters, chloroform, acetone, alcohols, 0.1N HCl): Easily soluble
Solubility (Solubility; Water): Insoluble
Solubility (Solubility; n-hexane, 0.1N NaOH): Sparingly soluble
MIC [7]: 0.2 µg/mL
MIC (Penicillium glaucum): > 100 µg/mL
MIC (Streptococcus salivarius): 6.25 µg/mL
MIC (Tolura rubra): > 100 µg/mL
MIC (Aspergillus niger): > 100 µg/mL
MIC [8]: 100 µg/mL
antibacterial activity against gram-positive bacteria (gram-positive bacteria): mainly show an antibacterial activity
MIC [9]: 0.02 µg/mL
MIC [10]: 50 µg/mL
antibacterial activity against most gram-negative bacteria (gram-negative bacteria): little antibacterial activity
MIC (Saccharomyces cerevisiae): > 100 µg/mL
MIC (Aspergillus oryzae): > 100 µg/mL
MIC (Pseudomonas aeruginosa): > 100 µg/mL
MIC [11]: 0.003 µg/mL
MIC (Corynebacterium xerosis): 0.003 µg/mL
MIC (Bacillus cereus): 50 µg/mL
MIC (Staphylococcus albus): 0.1 µg/mL
MIC (Nocardia asteoides): 25 µg/mL
toxicity [3]: relatively low toxicity
MIC [12]: 0.1 µg/mL
MIC (Mycobacterium avium): 100 µg/mL
MIC (Mycobacterium phlei): 100 µg/mL
MIC [13]: 6.25 µg/mL
MIC (Lactobacillus arabinosus): 12.5 µg/mL
MIC (Serratia marcescens): > 100 µg/mL
MIC (Streptococcus faecalis): 25 µg/mL
MIC (Candida albicans): > 100 µg/mL
MIC (Staphylococcus citreus): 0.1 µg/mL
MIC (Mucor mucedo): > 100 µg/mL

chlorocarcin B
MIC (Escherichia coli): > 100 µg/mL
MIC (Brucella abortus): > 100 µg/mL
MIC (Klebsiella pneumonaie): 50 µg/mL
MIC (Salmonella typhimurium): > 100 µg/mL
MIC (Shigella dysenteriae): > 100 µg/mL
MIC [6]: > 100 µg/mL
Solubility (Solubility; [14]): Easily soluble
Solubility (Solubility; Water): Insoluble
Solubility (Solubility; n-hexane): Sparingly soluble
MIC [7]: 25 µg/mL
MIC (Penicillium glaucum): > 100 µg/mL
MIC (Streptococcus salivarius): 50 µg/mL
MIC (Tolura rubra): > 100 µg/mL
MIC (Aspergillus niger): > 100 µg/mL
MIC [8]: > 100 µg/mL
antibacterial activity against gram-positive bacteria (gram-positive bacteria): mainly show an antibacterial activity
MIC [9]: 12.5 µg/mL
MIC [10]: 100 µg/mL
antibacterial activity against most gram-negative bacteria (gram-negative bacteria): little antibacterial activity
MIC (Saccharomyces cerevisiae): > 100 µg/mL
MIC (Aspergillus oryzae): > 100 µg/mL
MIC (Pseudomonas aeruginosa): > 100 µg/mL
MIC [11]: 0.05 µg/mL
MIC (Corynebacterium xerosis): 0.39 µg/mL
MIC (Bacillus cereus): 50 µg/mL
MIC (Staphylococcus albus): 50 µg/mL
MIC (Nocardia asteoides): 50 µg/mL
toxicity [3]: relatively low toxicity
MIC [12]: 12.5 µg/mL
MIC (Mycobacterium avium): > 100 µg/mL
MIC (Mycobacterium phlei): > 100 µg/mL
MIC [13]: 6.25 µg/mL
MIC (Lactobacillus arabinosus): 50 µg/mL
MIC (Serratia marcescens): > 100 µg/mL
MIC (Streptococcus faecalis): > 100 µg/mL
MIC (Candida albicans): > 100 µg/mL
MIC (Staphylococcus citreus): 25 µg/mL
MIC (Mucor mucedo): > 100 µg/mL

chlorocarcin C
MIC (Escherichia coli): > 100 µg/mL
MIC (Brucella abortus): > 100 µg/mL
MIC (Klebsiella pneumonaie): 50 µg/mL
MIC (Salmonella typhimurium): > 100 µg/mL
MIC (Shigella dysenteriae): > 100 µg/mL
MIC [6]: > 100 µg/mL
Solubility (Solubility; [14]): Easily soluble
Solubility (Solubility; Water): Insoluble
Solubility (Solubility; n-hexane): Sparingly soluble
MIC [7]: 25 µg/mL
MIC (Penicillium glaucum): > 100 µg/mL
MIC (Streptococcus salivarius): 50 µg/mL
MIC (Tolura rubra): > 100 µg/mL
MIC (Aspergillus niger): > 100 µg/mL
MIC [8]: > 100 µg/mL
antibacterial activity against gram-positive bacteria (gram-positive bacteria): mainly show an antibacterial activity
MIC [9]: 12.5 µg/mL
MIC [10]: 100 µg/mL
antibacterial activity against most gram-negative bacteria (gram-negative bacteria): little antibacterial activity
MIC (Saccharomyces cerevisiae): > 100 µg/mL
MIC (Aspergillus oryzae): > 100 µg/mL
MIC (Pseudomonas aeruginosa): > 100 µg/mL
MIC [11]: 0.05 µg/mL
MIC (Corynebacterium xerosis): 0.39 µg/mL
MIC (Bacillus cereus): 50 µg/mL
MIC (Staphylococcus albus): 50 µg/mL
MIC (Nocardia asteoides): 50 µg/mL
toxicity [3]: relatively low toxicity
MIC [12]: 12.5 µg/mL
MIC (Mycobacterium avium): > 100 µg/mL
MIC (Mycobacterium phlei): > 100 µg/mL
MIC [13]: 6.25 µg/mL
MIC (Lactobacillus arabinosus): 50 µg/mL
MIC (Serratia marcescens): > 100 µg/mL
MIC (Streptococcus faecalis): > 100 µg/mL
MIC (Candida albicans): > 100 µg/mL
MIC (Staphylococcus citreus): 25 µg/mL
MIC (Mucor mucedo): > 100 µg/mL
